Among the data in US9850283B2, “Macrocyclic inhibitors of the PD-1/PD-L1 and CD80(B7-1)/PD-L1 protein/protein interactions” (BRISTOL-MYERS SQUIBB COMPANY, priority 2013, dated 2017) are IC50 values, retold here.

One experiment deals with T1, Human PD-L1/PD-1 (Homo sapiens, UniProt Q9NZQ7).
T1 construct: made in house; host or cells: HEK293T
The experiment can be described thus: HTRF PD-1-Ig/PD-L1-His binding assay (human PD-L1). Particulars: cluster symbol; read-out: HTRF IC50 cluster. Summed up: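 The time-resolved fluorescence signal comes from Eu-cryptate anti-Ig (1 nM) and APC anti-His (20 nM) antibodies bound to a PD-1-Ig/PD-L1-His complex. Both partners lack transmembrane regions.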
(In general: Time-resolved FRET reads energy transfer from a long-lived donor to a nearby acceptor.)

In experiment [1] the target is T2, LK35.2-hPD-L1 cells / PE-labeled PD-1-Ig (Homo sapiens, UniProt Q9NZQ7).
T2 construct: expressed in transfected cells; host or cells: LK35.2 mouse B cell line
T2 sequence (Q9NZQ7 19-290): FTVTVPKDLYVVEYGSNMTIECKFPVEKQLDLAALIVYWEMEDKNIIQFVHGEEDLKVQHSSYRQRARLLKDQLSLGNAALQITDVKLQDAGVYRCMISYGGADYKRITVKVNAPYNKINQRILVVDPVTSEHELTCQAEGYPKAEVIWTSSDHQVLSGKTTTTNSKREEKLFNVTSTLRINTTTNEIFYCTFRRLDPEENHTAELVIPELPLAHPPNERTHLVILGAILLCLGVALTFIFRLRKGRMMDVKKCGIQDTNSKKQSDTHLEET
Nature of the experiment: LK35.2-hPD-L1 cell binding high-content screening assay. The format is cell-based. The note with it: cluster symbol, read-out: CBA IC50 cluster. Summed up: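 Mouse LK35.2 B cells stably overexpressing human PD-L1 were cultured overnight in RPMI with 10% FCS, then given compound and PE-labeled human PD-1-Ig (1 nM final) for 1 h at 37 °C. After three dPBS washes, bound fluorescence was quantified by high-content imaging.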

Where [2] appears, read: cell binding assay, cell line not given.
Setting [3] is: cell line of CBA not given (LK35.2-hPD-L1 or 293T-hPD-L1).

Structures are written as SMILES. pIC50: −log10 of the molar value. Where two headings read alike, the source gives them in different places. Starred links: 1 amine or outer side, 2 acyl side, 3 side chain; linkers in the order of their positions; H or OH if unused. Positions of bridges follow the written chain, without caps; N, C: chain ends. Non-standard residues stand in square brackets, D forms with d. Residues, ends and D or L forms follow the SMILES beside them. ξ: configuration not given here. Ala(indol-4-yl) = N[C@@H](Cc1cccc2[nH]ccc12)C(=O)O; X14 = O=C([C@H](Cc1cc(F)c(F)c(Cl)c1)N[*:1])[*:2]; Pro(4S-NH2) = N[C@@H]1CN[C@H](C(=O)O)C1; Bta = N[C@@H](Cc1csc2ccccc12)C(=O)O; cisHyp = O=C(O)[C@@H]1C[C@H](O)CN1; Hyp = O=C(O)[C@@H]1C[C@@H](O)CN1; NMeF = CN[C@@H](Cc1ccccc1)C(=O)O; tBuAla = CC(C)(C)C[C@H](N)C(=O)O; NMeNle = CCCC[C@H](NC)C(=O)O; NMeM = CN[C@@H](CCSC)C(=O)O; NMeA = CN[C@@H](C)C(=O)O; Orn = NCCC[C@H](N)C(=O)O; Dap = NC[C@H](N)C(=O)O; ξC = NC(CS)C(=O)O; Sar = CNCC(=O)O

T1 sequence (Q9NZQ7 with tags, fused parts or gaps): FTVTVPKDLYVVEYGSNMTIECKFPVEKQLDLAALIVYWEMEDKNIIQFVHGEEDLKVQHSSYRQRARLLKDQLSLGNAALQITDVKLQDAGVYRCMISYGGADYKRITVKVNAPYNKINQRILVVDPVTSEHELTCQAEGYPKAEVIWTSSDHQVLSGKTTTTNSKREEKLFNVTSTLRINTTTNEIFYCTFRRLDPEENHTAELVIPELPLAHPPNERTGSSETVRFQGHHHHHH

The term pIC50 denotes −log10 of the IC50, conventionally taken in molar units. Consider `CCCC[C@H]1C(=O)N[C@@H](C)C(=O)NC(C(=O)NCC(N)=O)CSCC(=O)N[C@@H](Cc2ccc(O)cc2)C(=O)N(C)[C@@H](C)C(=O)N[C@@H](CC(N)=O)C(=O)N2CCC[C@H]2C(=O)N[C@@H](CN)C(=O)N[C@@H](CC(C)C)C(=O)N2CCC[C@H]2C(=O)N[C@@H](Cc2c[nH]c3ccccc23)C(=O)N[C@@H](CO)C(=O)N[C@@H](Cc2c[nH]c3ccccc23)C(=O)N(C)[C@@H](CCSC)C(=O)N1C` (some centres unmarked) [Example 9093] ({CH2CO}-Y[NMeA]NP[Dap]LPWSW[NMeM][NMeNle]A[ξC]G-NH2; thioether N-14), for which the pIC50 on Human PD-L1/PD-1 is 7.52 to 8.17; in experiment [1] (setting [2]), 7.14 to 8.32.
With `CCCC[C@H]1C(=O)N(C)[C@@H](CCCC)C(=O)N[C@@H](CCCNC(=N)N)C(=O)N[C@H](C(=O)NCC(N)=O)CSCC(=O)N[C@@H](Cc2ccccc2)C(=O)N(C)[C@@H](C)C(=O)N[C@@H](CC(N)=O)C(=O)N2CCC[C@H]2C(=O)N[C@@H](Cc2cnc[nH]2)C(=O)N[C@@H](CC(C)C)C(=O)N(C)CC(=O)N[C@@H](Cc2c[nH]c3ccccc23)C(=O)N[C@@H](CCCCN)C(=O)N[C@@H](Cc2c[nH]c3ccccc23)C(=O)N1C` [Example 1069] ({CH2CO}-F[NMeA]NPHL[Sar]WKW[NMeNle][NMeNle]RCG-NH2; thioether N-14), the pIC50 at Human PD-L1/PD-1 is 8.17 to 9.41; in experiment [1] (setting [3]), 7.14 to 8.32.
The matching figures for `CCCC[C@H]1C(=O)N(C)[C@@H](CCCC)C(=O)N[C@@H](CCCN)C(=O)N[C@H](C(=O)NCC(N)=O)CSCC(=O)N[C@@H](Cc2ccc(O)cc2)C(=O)N2CCC[C@H]2C(=O)N[C@@H](CC(=O)O)C(=O)N2CCC[C@H]2C(=O)N[C@@H](CN)C(=O)N[C@@H](CC(C)C)C(=O)N2C[C@@H](O)C[C@H]2C(=O)N[C@@H](Cc2c[nH]c3ccccc23)C(=O)N[C@@H](CO)C(=O)N[C@@H](Cc2c[nH]c3ccccc23)C(=O)N1C` [Example 1149] ({CH2CO}-YPDP[Dap]L[cisHyp]WSW[NMeNle][NMeNle][Orn]CG-NH2; thioether N-14): 7.52 to 8.17 and 7.14 to 8.32.
The matching figures for `CCCC[C@H]1C(=O)N(C)CC(=O)N[C@@H](CC(=O)O)C(=O)N[C@@H](C(C)C)C(=O)N(C)[C@@H](Cc2ccccc2)C(=O)N[C@@H](Cc2cccc3[nH]ccc23)C(=O)N(C)CC(=O)N[C@@H](Cc2c[nH]c3ccccc23)C(=O)N[C@@H](Cc2ccc(O)cc2)C(=O)N[C@@H](CC(C)C)C(=O)N[C@H](C(=O)NCC(N)=O)CSCC(=O)N[C@@H](Cc2ccccc2)C(=O)N(C)[C@@H](Cc2ccccc2)C(=O)N1C` [Example 3110] ({CH2CO}-F[NMeF][NMeNle][Sar]DV[NMeF][Ala(indol-4-yl)][Sar]WYLCG-NH2; thioether N-13): 7.52 to 8.17 and 8.33 to 9.80.
Consider `CCCC[C@H]1C(=O)N(C)[C@@H](CCCC)C(=O)N[C@@H](CCCNC(=N)N)C(=O)N[C@H](C(=O)NCC(N)=O)CSCC(=O)N[C@@H](Cc2ccc(O)cc2)C(=O)N(C)[C@@H](C)C(=O)N[C@@H](CC(N)=O)C(=O)N2CCC[C@H]2C(=O)N[C@@H](CN)C(=O)N[C@@H](CC(C)C)C(=O)N2C[C@H](O)C[C@H]2C(=O)N[C@@H](Cc2c[nH]c3ccccc23)C(=O)N[C@@H](CC(C)C)C(=O)N[C@@H](Cc2c[nH]c3ccccc23)C(=O)N1C` [Example 6034] ({CH2CO}-Y[NMeA]NP[Dap]L[Hyp]WLW[NMeNle][NMeNle]RCG-NH2; thioether N-14), for which the pIC50 was 8.17 to 9.41 at Human PD-L1/PD-1 and 8.33 to 9.80 in experiment [1] (setting [2]).
As to `CCCC[C@H]1C(=O)N(C)[C@@H](CCSC)C(=O)N[C@@H](CCCNC(=N)N)C(=O)NC(C(=O)NCC(N)=O)CSCC(=O)N[C@@H](Cc2ccc(O)cc2)C(=O)N(C)[C@@H](C)C(=O)N[C@@H](CC(N)=O)C(=O)N2CCC[C@H]2C(=O)N[C@@H](CN)C(=O)N[C@@H](CC(C)C)C(=O)N2C[C@H](O)C[C@H]2C(=O)N[C@@H](Cc2c[nH]c3ccccc23)C(=O)N[C@@H](CO)C(=O)N[C@@H](Cc2c[nH]c3ccccc23)C(=O)N1C` (some centres unmarked) [Example 9083] ({CH2CO}-Y[NMeA]NP[Dap]L[Hyp]WSW[NMeNle][NMeM]R[ξC]G-NH2; thioether N-14), the values for the pIC50 (at Human PD-L1/PD-1; in experiment [1] (setting [2])) were 7.52 to 8.17 and 8.33 to 9.80, respectively.
The matching figures for `CCCC[C@H]1C(=O)N(C)[C@@H](CCCC)C(=O)N[C@@H](CC(C)(C)C)C(=O)N[C@H](C(=O)NCC(N)=O)CSCC(=O)N[C@@H](Cc2ccc(O)cc2)C(=O)N(C)[C@@H](C)C(=O)N[C@@H](CC(N)=O)C(=O)N2CCC[C@H]2C(=O)N[C@@H](Cc2c[nH]cn2)C(=O)N[C@@H](CCC(N)=O)C(=O)N2C[C@H](O)C[C@H]2C(=O)N[C@@H](Cc2c[nH]c3ccccc23)C(=O)N[C@@H](CO)C(=O)N[C@@H](Cc2c[nH]c3ccccc23)C(=O)N1C` [Example 5076] ({CH2CO}-Y[NMeA]NPHQ[Hyp]WSW[NMeNle][NMeNle][tBuAla]CG-NH2; thioether N-14): 7.52 to 8.17 and 7.14 to 8.32.
In the case of `CCCC[C@H]1C(=O)N(C)CC(=O)N[C@@H](CC(=O)O)C(=O)N[C@@H](C(C)C)C(=O)N(C)[C@@H](Cc2ccccc2)C(=O)N[C@@H](Cc2ccc(O)cc2)C(=O)N(C)CC(=O)N[C@@H](Cc2c[nH]c3ccccc23)C(=O)N[C@@H](Cc2ccc(O)cc2)C(=O)N[C@@H](CC(C)C)C(=O)N[C@H](C(=O)NCC(N)=O)CSCC(=O)N[C@@H](Cc2cc(F)c(F)c(Cl)c2)C(=O)N(C)[C@@H](Cc2ccccc2)C(=O)N1C` [Example 3186] ({CH2CO}-[X14][NMeF][NMeNle][Sar]DV[NMeF]Y[Sar]WYLCG-NH2; thioether N-13), the values for the pIC50 (on Human PD-L1/PD-1; in experiment [1] (setting [3])) were 7.52 to 8.17 and 8.33 to 9.80, respectively.
For `CCCC[C@H]1C(=O)N(C)[C@@H](CCCC)C(=O)N[C@@H](CCCNC(=N)N)C(=O)N[C@H](C(=O)NCC(N)=O)CSCC(=O)N[C@@H](Cc2ccc(O)cc2)C(=O)N(C)[C@@H](C)C(=O)N[C@@H](CC(N)=O)C(=O)N2CCC[C@H]2C(=O)N[C@@H](Cc2cnc[nH]2)C(=O)N[C@@H](CC(C)C)C(=O)N2C[C@@H](N)C[C@H]2C(=O)N[C@@H](Cc2c[nH]c3ccccc23)C(=O)N[C@@H](CO)C(=O)N[C@@H](Cc2csc3ccccc23)C(=O)N1C` [Example 1037] ({CH2CO}-Y[NMeA]NPHL[Pro(4S-NH2)]WS[Bta][NMeNle][NMeNle]RCG-NH2; thioether N-14), in that order: 7.52 to 8.17 and 8.33 to 9.80.
For the compound `CCCC[C@H]1C(=O)N2CCC[C@@H]2C(=O)N2CCC[C@H]2C(=O)N[C@@H](C(C)C)C(=O)N(C)[C@@H](Cc2ccccc2)C(=O)N[C@@H](Cc2ccc(O)cc2)C(=O)N(C)CC(=O)N[C@@H](Cc2c[nH]c3ccccc23)C(=O)N[C@@H](Cc2ccc(O)cc2)C(=O)N[C@@H](CC(C)C)C(=O)N[C@H](C(=O)NCC(N)=O)CSCC(=O)N[C@@H](Cc2ccccc2)C(=O)N(C)[C@@H](Cc2ccccc2)C(=O)N1C` [Example 3173] (HELM PEPTIDE1{[O=C(C[*:3])[*:2]].F.[meF].[CCCC[C@@H](C(=O)[*:2])N(C)[*:1]].[dP].P.V.[meF].Y.[Sar].W.Y.L.C.G.[am]}$PEPTIDE1,PEPTIDE1,1:R3-14:R3$$$V2.0), the figures for the pIC50 (at Human PD-L1/PD-1; in experiment [1] (setting [3])) were less than 7.52 and 7.14 to 8.32, respectively.
